Test results taken from patent US4782135A (priority 1983, dated 1988).
Read-outs that look alike come from different tables or passages of the source.

Tests used:
[1] = test system: herpes simplex virus (HSV) type 1; assay type: cell-based, herpes simplex virus type 1
equine rhinovirus (ER) = assay type: cell-based
coxsackie (COX) A21 = assay type: cell-based, coxsackie virus
[2] = test system: herpes simplex virus (HSV) type 2; assay type: cell-based, herpes simplex virus type 2
P388 leukemia = assay: In vivo P388 mouse leukemia test; set-up: species or system mice
Text: The P388 mouse leukemia test is described in detail in a publication by G. L. Neil, et. al., Cancer Treatment Reports 63, 1971-1978 (1979).
^a Schedule of Injection: daily intraperitoneal injection for 9 days
following tumor implantation.
^b Median survival time of control animals = 10.3 days.
^a Schedule of injection: Intraperitoneal injection on Day 1, 5, and
9, following Tumor inoculation.
^b Median survival time of Control (no drug) animals: 10.2 days.

[3] = test system: L1210 mouse leukemia cells; assay: L1210 tube dilution assay; assay type: cell-based
Text: The L1210 tube dilution assay is described in detail in a publication by L. H. Li, et al., Cancer Research 39: 4816 (1979).

[4] = 63 μg/kg/injection, daily i.p. for 9 days
[5] = 125 μg/kg/injection, daily i.p. for 9 days
[6] = 250 μg/kg/injection, daily i.p. for 9 days
[7] = 250 μg/kg/injection, i.p. on Day 1, 5 and 9
[8] = 500 μg/kg/injection, daily i.p. for 9 days
[9] = 500 μg/kg/injection, i.p. on Day 1, 5 and 9
[10] = 1000 μg/kg/injection, daily i.p. for 9 days
[11] = 1000 μg/kg/injection, i.p. on Day 1, 5 and 9
[12] = 2000 μg/kg/injection, daily i.p. for 9 days
[13] = 2000 μg/kg/injection, i.p. on Day 1, 5 and 9
[14] = 4000 μg/kg/injection, i.p. on Day 1, 5 and 9
[15] = 8000 μg/kg/injection, i.p. on Day 1, 5 and 9

didemnin C
ID50 Antiviral-HSV-1 virus [1]: < 1.5
Ratio (cytotoxic concentration ÷ antiviral concentration), HSV-1 virus [1]: > 33
ID50 Antiviral-ER virus (equine rhinovirus (ER)): < 1.5
Ratio (cytotoxic concentration ÷ antiviral concentration), ER virus (equine rhinovirus (ER)): > 4
ID50 Toxicity-Vero cells (Vero cells): 50
ID50 Antiviral-cox virus (coxsackie (COX) A21): < 1.5
Ratio (cytotoxic concentration ÷ antiviral concentration), cox virus (coxsackie (COX) A21): > 4
ID50 Antiviral-HSV-2 virus [2]: < 1.5
Ratio (cytotoxic concentration ÷ antiviral concentration), HSV-2 virus [2]: > 33
ID50 Toxicity-ML cells (ML cells): 6

didemnin A
Ratio (cytotoxic concentration ÷ antiviral concentration), HSV-1 virus ([1]; Vero cells): 17
ID50 Antiviral-HSV-1 virus ([1]; Vero cells infected with HSV-1): 3 µg/mL
Ratio (cytotoxic concentration ÷ antiviral concentration), ER virus (equine rhinovirus (ER); ML cells): 17
ID50 Antiviral-ER virus (equine rhinovirus (ER); ML cells infected with equine rhinovirus): 1.5 µg/mL
T/C (P388 leukemia; [4]): 104%
Weight Change (P388 leukemia; [4]): +0.9 g
Median Survival Time (P388 leukemia; 63 μg/kg/injection, daily i.p. for 9 days, control 10.3 days): 10.7 days
T/C (P388 leukemia; [5]): 115%
Weight Change (P388 leukemia; [5]): +1.4 g
Median Survival Time (P388 leukemia; 125 μg/kg/injection, daily i.p. for 9 days, control 10.3 days): 11.9 days
T/C (P388 leukemia; [6]): 119%
Weight Change (P388 leukemia; [6]): +1.0 g
Median Survival Time (P388 leukemia; 250 μg/kg/injection, daily i.p. for 9 days, control 10.3 days): 12.2 days
T/C (P388 leukemia; [7]): 109%
Weight Change (P388 leukemia; [7]): +1.7 g
Median Survival Time (P388 leukemia; 250 μg/kg/injection, i.p. on Day 1, 5 and 9, control 10.2 days): 11.1 days
T/C (P388 leukemia; [8]): 129%
Weight Change (P388 leukemia; [8]): +0.9 g
Median Survival Time (P388 leukemia; 500 μg/kg/injection, daily i.p. for 9 days, control 10.3 days): 13.2 days
T/C (P388 leukemia; [9]): 118%
Weight Change (P388 leukemia; [9]): +1.6 g
Median Survival Time (P388 leukemia; 500 μg/kg/injection, i.p. on Day 1, 5 and 9, control 10.2 days): 12.1 days
T/C (P388 leukemia; [10]): 158%
Weight Change (P388 leukemia; [10]): +0.3 g
Median Survival Time (P388 leukemia; 1000 μg/kg/injection, daily i.p. for 9 days, control 10.3 days): 16.2 days
T/C (P388 leukemia; [11]): 118%
Weight Change (P388 leukemia; [11]): +1.8 g
Median Survival Time (P388 leukemia; 1000 μg/kg/injection, i.p. on Day 1, 5 and 9, control 10.2 days): 12.1 days
T/C (P388 leukemia; [12]): 155%
Weight Change (P388 leukemia; [12]): -0.2 g
Median Survival Time (P388 leukemia; 2000 μg/kg/injection, daily i.p. for 9 days, control 10.3 days): 16.0 days
T/C (P388 leukemia; [13]): 121%
Weight Change (P388 leukemia; [13]): +2.0 g
Median Survival Time (P388 leukemia; 2000 μg/kg/injection, i.p. on Day 1, 5 and 9, control 10.2 days): 12.4 days
T/C (P388 leukemia; [14]): 130%
Weight Change (P388 leukemia; [14]): +1.3 g
Median Survival Time (P388 leukemia; 4000 μg/kg/injection, i.p. on Day 1, 5 and 9, control 10.2 days): 13.3 days
T/C (P388 leukemia; [15]): 140%
Weight Change (P388 leukemia; [15]): +0.8 g
Median Survival Time (P388 leukemia; 8000 μg/kg/injection, i.p. on Day 1, 5 and 9, control 10.2 days): 14.3 days
Activity in vivo against P388 leukemia in mice (P388 leukemia; mice): active
ID50 Toxicity-Vero cells (Vero cells; uninfected Vero cells, 50% cell destruction, overnight incubation): 50 µg/mL
Ratio (cytotoxic concentration ÷ antiviral concentration), cox virus (coxsackie (COX) A21; ML cells): 17
ID50 Antiviral-cox virus (coxsackie (COX) A21; ML cells infected with coxsackie A21): 1.5 µg/mL
ID50 ([3]; concentration to inhibit L1210 cell growth by 50 percent): 0.019 µg/mL
ID90 ([3]; concentration to inhibit L1210 cell growth by 90 percent): 0.058 µg/mL
Inhibition of growth of L1210 mouse leukemia cells in vitro (words) ([3]; in vitro): inhibit the growth
Solubility in organic solvents (methanol, ethanol, isopropanol, dioxane, ethyl acetate, and chloroform): soluble
Solubility in toluene (toluene): sparingly soluble
Solubility in water (water): insoluble
Ratio (cytotoxic concentration ÷ antiviral concentration), HSV-2 virus ([2]; Vero cells): 33
ID50 Antiviral-HSV-2 virus ([2]; Vero cells infected with HSV-2): 1.5 µg/mL
ID50 Toxicity-ML cells (ML cells; uninfected ML cells, 50% cell destruction, overnight incubation): 25 µg/mL
